Where two headings read alike, the source gives them in different places. Peptide text beside a SMILES is read from it.
Tests used:
ACE = molecular target: T1, ACE (Homo sapiens, UniProt P12821); test: ACE inhibition assay (ACE kit-WST); type: biochemical; conditions: chemically synthesized peptides; mean ± SD of three replicates
T1 construct: purchased ACE kit‐WST
Protocol: The ACE inhibition assay was carried out with the ACE inhibitory assay kit (ACE kit‐WST). Absorbance at 450 nm was measured using a plate reader (SpectraMax plus, Molecular devices), and the IC50 value reported for each sample was the mean value from three independent replicate assays.

DPP-IV [1] = molecular target: T2, DPP-IV (Homo sapiens, UniProt P27487); test: DPP-IV inhibition assay (DPP-IV inhibitor screening assay kit, Gly-Pro-Aminomethylcoumarin substrate); type: biochemical; conditions: chemically synthesized peptides; mean ± SD of three replicates
T2 construct: purchased Abnova KA1311
T2 sequence (P27487 whole entry): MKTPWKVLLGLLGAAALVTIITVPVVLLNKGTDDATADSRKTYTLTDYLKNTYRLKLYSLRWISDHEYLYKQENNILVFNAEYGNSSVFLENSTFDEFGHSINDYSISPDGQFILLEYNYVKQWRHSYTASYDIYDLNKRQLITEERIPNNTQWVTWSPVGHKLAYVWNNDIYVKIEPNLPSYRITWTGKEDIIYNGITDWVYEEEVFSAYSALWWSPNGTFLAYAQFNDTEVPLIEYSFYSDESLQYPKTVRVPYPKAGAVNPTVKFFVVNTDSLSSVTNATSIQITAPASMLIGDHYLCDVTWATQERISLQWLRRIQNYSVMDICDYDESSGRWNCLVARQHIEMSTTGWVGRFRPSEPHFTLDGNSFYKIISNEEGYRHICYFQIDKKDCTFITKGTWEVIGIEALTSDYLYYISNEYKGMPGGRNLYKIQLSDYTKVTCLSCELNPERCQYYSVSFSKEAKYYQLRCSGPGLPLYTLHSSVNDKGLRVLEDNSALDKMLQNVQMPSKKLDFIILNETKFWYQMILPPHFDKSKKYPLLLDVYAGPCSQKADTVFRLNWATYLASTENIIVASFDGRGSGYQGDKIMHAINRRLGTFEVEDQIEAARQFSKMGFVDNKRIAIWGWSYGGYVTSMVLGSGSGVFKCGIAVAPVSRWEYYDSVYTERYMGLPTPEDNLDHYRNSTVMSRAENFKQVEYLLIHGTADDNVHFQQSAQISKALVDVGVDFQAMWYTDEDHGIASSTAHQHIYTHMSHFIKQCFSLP
Protocol: The DPP‐IV inhibition assay was determined using DPP‐IV inhibitor screening assay kit (KA1311, Abnova). Briefly, peptide samples (10 μl), dispersed in assay buffer (20 mM Tris‐HCl containing 100 mM NaCl and 1 mM EDTA, pH 8.0) at various concentrations, were mixed with assay buffer and DPP‐IV in a 96‐well plate. Then, substrate solution (Gly‐Pro‐Aminomethylcoumarin) was added to initiate the reactions. The mixture was incubated at 37°C for 30 min, and the fluorescence was measured using a plate reader (Synergy MX, Bio Tek) at an excitation wavelength of 350 nm and an emission wavelength of 450 nm. The concentration of the DPP‐IV inhibitor required to inhibit 50% of DPP‐IV activity under the above assay conditions was defined as the IC50, which was the mean value from three independent replicate assays.

DPP-IV [2] = molecular target: T2, DPP-IV; parameters: method as in Vilcacundo et al., 2017; conditions: peptide released from quinoa protein by pepsin-pancreatin digestion; ref Vilcacundo et al., 2017; read-out: IC50 DPP-IV inhibitory activity; cited from earlier work

T1 sequence (P12821 30-1306, species assumed): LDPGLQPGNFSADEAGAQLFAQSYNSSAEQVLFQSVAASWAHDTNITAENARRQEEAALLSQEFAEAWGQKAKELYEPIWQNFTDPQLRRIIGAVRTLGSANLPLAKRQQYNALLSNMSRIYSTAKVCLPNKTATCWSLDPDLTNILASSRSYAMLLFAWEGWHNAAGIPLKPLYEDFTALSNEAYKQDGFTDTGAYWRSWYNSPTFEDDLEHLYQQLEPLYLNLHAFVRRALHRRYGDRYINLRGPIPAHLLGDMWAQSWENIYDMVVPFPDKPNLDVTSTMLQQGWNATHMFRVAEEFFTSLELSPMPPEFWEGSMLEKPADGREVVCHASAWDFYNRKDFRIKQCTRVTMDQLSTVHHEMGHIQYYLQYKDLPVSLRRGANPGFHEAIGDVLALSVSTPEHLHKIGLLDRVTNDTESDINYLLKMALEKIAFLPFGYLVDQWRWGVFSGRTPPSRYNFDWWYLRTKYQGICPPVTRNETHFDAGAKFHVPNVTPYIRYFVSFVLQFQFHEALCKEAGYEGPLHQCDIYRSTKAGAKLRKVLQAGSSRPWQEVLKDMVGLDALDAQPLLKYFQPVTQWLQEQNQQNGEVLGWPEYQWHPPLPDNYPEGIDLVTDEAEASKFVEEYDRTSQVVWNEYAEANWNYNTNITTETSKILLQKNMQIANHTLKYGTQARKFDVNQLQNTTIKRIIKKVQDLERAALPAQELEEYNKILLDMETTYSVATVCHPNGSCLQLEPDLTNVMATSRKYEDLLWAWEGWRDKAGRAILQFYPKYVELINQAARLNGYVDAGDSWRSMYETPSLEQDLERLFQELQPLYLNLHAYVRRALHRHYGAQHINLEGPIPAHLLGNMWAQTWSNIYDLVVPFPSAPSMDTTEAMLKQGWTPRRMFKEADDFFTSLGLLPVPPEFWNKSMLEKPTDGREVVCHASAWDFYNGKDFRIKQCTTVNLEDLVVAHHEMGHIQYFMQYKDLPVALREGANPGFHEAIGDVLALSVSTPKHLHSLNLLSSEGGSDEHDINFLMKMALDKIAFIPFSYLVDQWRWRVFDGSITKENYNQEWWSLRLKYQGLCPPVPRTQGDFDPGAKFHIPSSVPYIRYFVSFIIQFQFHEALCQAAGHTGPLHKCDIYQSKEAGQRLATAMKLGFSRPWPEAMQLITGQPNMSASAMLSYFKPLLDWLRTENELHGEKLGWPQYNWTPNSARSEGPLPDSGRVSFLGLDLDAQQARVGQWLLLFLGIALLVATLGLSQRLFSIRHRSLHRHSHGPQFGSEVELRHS

Compound	IC50 (ACE) [µM]	IC50 (DPP-IV [1]) [µM]	IC50 (DPP-IV [2]) [µM]
CSCC[C@H](N)C(=O)N[C@@H](CS)C(=O)NCC(=O)O [MCG] (H-Met-Cys-Gly-OH)	20.9	149	–
IQAEGGLT	–	–	268
CSCC[C@H](NC(=O)[C@@H](N)CC(N)=O)C(=O)N[C@@H](Cc1ccccc1)C(=O)O [NMF] (H-Asn-Met-Phe-OH)	152	127	–

The next lines start with results.

IC50 (ACE) [µM]	IC50 (DPP-IV [1]) [µM]	Compound	IC50 (DPP-IV [2]) [µM]
152	338	CSCC[C@H](N)C(=O)N[C@@H](C)C(=O)N[C@@H](Cc1ccccc1)C(=O)O [MAF] (H-Met-Ala-Phe-OH)	–
100	34.3	N[C@@H](Cc1cnc[nH]1)C(=O)N1CCC[C@H]1C(=O)N[C@@H](Cc1ccccc1)C(=O)O [HPF] (H-His-Pro-Phe-OH)	–

Reference: publication PMC7063354, “Novel dipeptidyl peptidase‐IV and angiotensin‐I‐converting enzyme inhibitory peptides released from quinoa protein by in silico proteolysis” (Food Science & Nutrition, 2020)
